# Measured values: ChEMBL document CHEMBL5500371, “Arginine and tryptophan-rich dendritic antimicrobial peptides that disrupt membranes for bacterial infection in vivo” (Eur J Med Chem, 2024)
# Calls of active or inactive are those of the source. The rule behind the calls is not given here. Where a SMILES comes first, the peptide text is derived from it.
# Assays:
# Erythrocyte = assay: Hemolytic activity in mouse erythrocytes assessed as 10% hemolysis incubated for 1 hr by absorbance based analysis; type: toxicity, cell-based
# Escherichia coli [1] = assay: Antibacterial activity against Escherichia coli ATCC 25922 assessed as inhibition of bacterial growth incubated for 20 hrs in presence of ZnCl2 by broth microdilution method (reference value: 16 microM); type: functional
# Escherichia coli [2] = assay: Antibacterial activity against Escherichia coli ATCC 25922 assessed as inhibition of bacterial growth preincubated with 10% mouse serum for 1 hr and measured after 20 hrs by broth microdilution method; type: functional; details: time 21 hrs
# Staphylococcus aureus [3] = assay: Antibacterial activity against Staphylococcus aureus ATCC 25923 assessed as inhibition of bacterial growth incubated for 20 hrs in presence of FeCl3 by broth microdilution method (reference value: 8 microM); type: functional
# [4] = Therapeutic index, ratio of MHC10 for hemolytic activity in mouse erythrocytes preincubated with 10% mouse serum for 1 hr to MIC for Staphylococcus aureus ATCC 25923 preincubated with 10% mouse serum for 1 hr; type: toxicity, cell-based; details: mouse erythrocytes, read-out: TI
# Staphylococcus aureus [5] = assay: Antibacterial activity against Staphylococcus aureus ATCC 25923 assessed as inhibition of bacterial growth preincubated with 10% mouse serum for 6 hrs and measured after 20 hrs by broth microdilution method; type: functional; details: time 21 hrs
# Staphylococcus aureus [6] = assay: Antibacterial activity against Staphylococcus aureus ATCC 25923 assessed as inhibition of bacterial growth by measuring fold increase in MIC incubated for 20 hrs in presence of KCl by broth microdilution method relative to control; type: functional
# [7] = Therapeutic index, ratio of MHC10 for hemolytic activity in mouse erythrocytes preincubated with 10% mouse serum for 6 hrs to MIC for Staphylococcus aureus ATCC 25923 preincubated with 10% mouse serum for 6 hrs; type: toxicity, cell-based; details: mouse erythrocytes, read-out: TI
# Staphylococcus aureus [8] = assay: Antibacterial activity against Staphylococcus aureus ATCC 25923 assessed as inhibition of bacterial growth by measuring fold increase in MIC incubated for 20 hrs in presence of NaCl by broth microdilution method relative to control; type: functional
# Escherichia coli [9] = assay: Antibacterial activity against Escherichia coli ATCC 25922 assessed as inhibition of bacterial growth preincubated with 10% mouse serum for 6 hrs and measured after 20 hrs by broth microdilution method; type: functional; details: time 26 hrs
# Bacillus subtilis = assay: Antibacterial activity against Bacillus subtilis ATCC 23857 assessed as inhibition of bacterial growth incubated for 20 hrs by broth microdilution method; type: functional
# Escherichia coli [10] = assay: Antibacterial activity against Escherichia coli ATCC 25922 assessed as inhibition of bacterial growth incubated for 20 hrs in presence of FeCl3 by broth microdilution method (reference value: 16 microM); type: functional
# Staphylococcus aureus [11] = assay: Antibacterial activity against Staphylococcus aureus ATCC 25923 assessed as inhibition of bacterial growth incubated for 20 hrs in presence of MgCl2 by broth microdilution method (reference value: 8 microM); type: functional
# Staphylococcus aureus [12] = assay: Antibacterial activity against Staphylococcus aureus ATCC 25923 assessed as inhibition of bacterial growth incubated for 20 hrs in presence of NaCl by broth microdilution method (reference value: 8 microM); type: functional
# Pseudomonas aeruginosa = assay: Antibacterial activity against Pseudomonas aeruginosa ATCC 27853 assessed as inhibition of bacterial growth incubated for 20 hrs by broth microdilution method; type: functional
# Escherichia coli [13] = assay: Antibacterial activity against Escherichia coli ATCC 25922 assessed as inhibition of bacterial growth incubated for 20 hrs in presence of NaCl by broth microdilution method (reference value: 16 microM); type: functional
# Acinetobacter baumannii = assay: Antibacterial activity against Acinetobacter baumannii ATCC 19606 assessed as inhibition of bacterial growth incubated for 20 hrs by broth microdilution method; type: functional
# [14] = Therapeutic index, ratio of MHC10 for hemolytic activity in mouse erythrocytes preincubated with 10% mouse serum for 1 hr to MIC for Escherichia coli ATCC 25922 preincubated with 10% mouse serum for 1 hr; type: toxicity, cell-based; details: mouse erythrocytes, read-out: TI
# [15] = Cytotoxicity against HEK293T cells assessed as cell death measured after 1 hr by resazurin dye based analysis; type: toxicity, HEK-293T; details: human, HEK293T cells
# [16] = Stability in mouse serum assessed as half life at 10 mM measured upto 24 hrs by RP-HPLC analysis; type: ADME, cell-free
# Klebsiella pneumoniae = assay: Antibacterial activity against Klebsiella pneumoniae ATCC 700603 assessed as inhibition of bacterial growth incubated for 20 hrs by broth microdilution method; type: functional
# [17] = Hemolytic activity in mouse erythrocytes at 256 uM preincubated for 1 to 6 hr with 10% mouse serum and measured after 1 hr by absorbance based analysis; type: toxicity, cell-based, Erythrocyte; details: time 1-7 hrs, read-out: Activity
# Escherichia coli [18] = assay: Antibacterial activity against Escherichia coli ATCC 25922 assessed as inhibition of bacterial growth incubated for 20 hrs in presence of MgCl2 by broth microdilution method (reference value: 16 microM); type: functional
# Staphylococcus aureus [19] = assay: Antibacterial activity against Staphylococcus aureus ATCC 25923 assessed as inhibition of bacterial growth by measuring fold increase in MIC incubated for 20 hrs in presence of MgCl2 by broth microdilution method relative to control; type: functional
# Escherichia coli [20] = assay: Antibacterial activity against Escherichia coli ATCC 25922 assessed as inhibition of bacterial growth incubated for 20 hrs by broth microdilution method; type: functional
# Staphylococcus aureus [21] = assay: Antibacterial activity against Staphylococcus aureus ATCC 25923 assessed as inhibition of bacterial growth preincubated with 10% mouse serum for 1 hr and measured after 20 hrs by broth microdilution method; type: functional; details: time 21 hrs
# Staphylococcus aureus [22] = assay: Antibacterial activity against Staphylococcus aureus ATCC 25923 assessed as inhibition of bacterial growth by measuring fold increase in MIC incubated for 20 hrs in presence of ZnCl2 by broth microdilution method relative to control; type: functional
# Staphylococcus aureus [23] = assay: Antibacterial activity against Staphylococcus aureus ATCC 25923 assessed as inhibition of bacterial growth incubated for 20 hrs in presence of ZnCl2 by broth microdilution method (reference value: 8 microM); type: functional
# [24] = Therapeutic index, ratio of MHC10 for hemolytic activity in mouse erythrocytes preincubated with 10% mouse serum for 6 hrs to MIC for Escherichia coli ATCC 25922 preincubated with 10% mouse serum for 6 hrs; type: toxicity, cell-based; details: mouse erythrocytes, read-out: TI
# Staphylococcus aureus [25] = assay: Antibacterial activity against Staphylococcus aureus ATCC 25923 assessed as inhibition of bacterial growth by measuring fold increase in MIC incubated for 20 hrs in presence of FeCl3 by broth microdilution method relative to control; type: functional
# Escherichia coli [26] = assay: Antibacterial activity against Escherichia coli ATCC 25922 assessed as inhibition of bacterial growth incubated for 20 hrs in presence of KCl by broth microdilution method (reference value: 16 microM); type: functional
# Staphylococcus aureus [27] = assay: Antibacterial activity against Staphylococcus aureus ATCC 25923 assessed as inhibition of bacterial growth incubated for 20 hrs by broth microdilution method; type: functional
# Staphylococcus aureus [28] = assay: Antibacterial activity against Staphylococcus aureus ATCC 25923 assessed as inhibition of bacterial growth incubated for 20 hrs in presence of KCl by broth microdilution method (reference value: 8 microM); type: functional
# Escherichia coli [29] = assay: Resistant development in Escherichia coli assessed as increase in MIC at sub-MIC measured after 20 passages; type: functional, organism-based
compound,measurement,setting,value
H-WWWWKRRRR-NH2,MHC10,Erythrocyte,> 256 µM
same,MIC,Escherichia coli [1],16 µM
same,MIC,Escherichia coli [2],2 µM
same,MIC,Staphylococcus aureus [3],8 µM
same,selectivity ratio,[4],0.5
same,MIC,Staphylococcus aureus [5],8 µM
same,fold change (FC),Staphylococcus aureus [6],<=2
same,selectivity ratio,[7],0.13
same,fold change (FC),Staphylococcus aureus [8],<=2
same,MIC,Escherichia coli [9],8 µM
same,MIC,Bacillus subtilis,8 µM
same,MIC,Escherichia coli [10],16 µM
same,MIC,Staphylococcus aureus [11],8 µM
same,MIC,Staphylococcus aureus [12],8 µM
same,MIC,Pseudomonas aeruginosa,8 µM
same,MIC,Escherichia coli [13],32 µM
same,MIC,Acinetobacter baumannii,32 µM
same,selectivity ratio,[14],0.5
same,CC50 at 1 h,[15],> 128 µM
same,half-life at 10000 µM,[16],1.42 h
same,MIC,Klebsiella pneumoniae,64 µM
same,"hemolysis at 1 h, 256 µM",[17],< 10%
same,MIC,Escherichia coli [18],8 µM
same,fold change (FC),Staphylococcus aureus [19],<=2
same,MIC,Escherichia coli [20],32 µM
same,MIC,Staphylococcus aureus [21],2 µM
same,fold change (FC),Staphylococcus aureus [22],<=2
same,MIC,Staphylococcus aureus [23],8 µM
same,selectivity ratio,[24],0.13
same,fold change (FC),Staphylococcus aureus [25],<=2
same,MIC,Escherichia coli [26],8 µM
same,MIC,Staphylococcus aureus [27],8 µM
same,MIC,Staphylococcus aureus [28],8 µM
CO[C@H]1/C=C/O[C@@]2(C)Oc3c(C)c(O)c4c(O)c(c(/C=N/N5CCN(C)CC5)c(O)c4c3C2=O)NC(=O)/C(C)=C\C=C\[C@H](C)[C@H](O)[C@@H](C)[C@@H](O)[C@@H](C)[C@H](OC(C)=O)[C@@H]1C [RIFAMPIN],Activity,Escherichia coli [29],Active
same,MIC,Bacillus subtilis,< 1 µM
same,MIC,Pseudomonas aeruginosa,32 µM
same,MIC,Acinetobacter baumannii,< 1 µM
same,MIC,Klebsiella pneumoniae,32 µM
same,MIC,Escherichia coli [20],4 µM
same,MIC,Staphylococcus aureus [27],< 1 µM
H-RRRRRRKWWWWWW-NH2,MHC10,Erythrocyte,24.89 µM
same,MIC,Bacillus subtilis,8 µM
same,MIC,Pseudomonas aeruginosa,64 µM
same,MIC,Acinetobacter baumannii,16 µM
same,CC50 at 1 h,[15],51.5 µM
same,MIC,Klebsiella pneumoniae,32 µM
same,MIC,Escherichia coli [20],16 µM
same,MIC,Staphylococcus aureus [27],32 µM
H-WWKRR-NH2,MHC10,Erythrocyte,> 256 µM
same,MIC,Bacillus subtilis,128 µM
same,MIC,Pseudomonas aeruginosa,> 128 µM
same,MIC,Acinetobacter baumannii,> 128 µM
same,CC50 at 1 h,[15],> 128 µM
same,MIC,Klebsiella pneumoniae,> 128 µM
same,MIC,Escherichia coli [20],> 128 µM
same,MIC,Staphylococcus aureus [27],> 128 µM
N=C(N)NCCC[C@H](NC(=O)[C@H](CCCCNC(=O)[C@@H](N)Cc1c[nH]c2ccccc12)NC(=O)[C@@H](N)Cc1c[nH]c2ccccc12)C(N)=O (H-Trp-Lys(Trp)-Arg-NH2),MHC10,Erythrocyte,> 256 µM
same,MIC,Bacillus subtilis,128 µM
same,MIC,Pseudomonas aeruginosa,> 128 µM
same,MIC,Acinetobacter baumannii,> 128 µM
same,CC50 at 1 h,[15],> 128 µM
same,MIC,Klebsiella pneumoniae,> 128 µM
same,MIC,Escherichia coli [20],> 128 µM
same,MIC,Staphylococcus aureus [27],> 128 µM
N=C(N)NCCC[C@H](NC(=O)[C@H](CCCCN)NC(=O)[C@H](Cc1c[nH]c2ccccc12)NC(=O)[C@@H](N)Cc1c[nH]c2ccccc12)C(N)=O (H-WWKR-NH2),MHC10,Erythrocyte,> 256 µM
same,MIC,Bacillus subtilis,> 128 µM
same,MIC,Pseudomonas aeruginosa,> 128 µM
same,MIC,Acinetobacter baumannii,> 128 µM
same,CC50 at 1 h,[15],> 128 µM
same,MIC,Klebsiella pneumoniae,> 128 µM
same,MIC,Escherichia coli [20],> 128 µM
same,MIC,Staphylococcus aureus [27],> 128 µM
